Patent US12115209B2, “ROMO1-derived antimicrobial peptides including lysine substitution and variants thereof” (KOREA UNIVERSITY RESEARCH AND BUSINESS FOUNDATION, priority 2019, dated 2024)
Values after ≈ are worked out from the molar mass of the structure shown. Non-standard residues stand in square brackets, D forms with d. Residues, ends and D or L forms follow the SMILES beside them. No end group written: not given here. Nle = CCCC[C@H](N)C(=O)O

Tests used:
Assay type in all cases: cell-based
[1] = system: Staphylococcus aureus (ATCC 29213); experiment: Minimum bactericidal concentration (MBC) assay
Protocol: (§1) First, each of Pseudomonas aeruginosa (ATCC 27853) and Staphylococcus aureus (ATCC 29213) was cultured in 3% (w/v) TSB (tryptic soy broth) liquid medium at 37° C. and 200 rpm for 4 hours, and then further cultured under the same conditions for 3 hours to a concentration of 5×10^6 CFU/ml. Strain solutions were prepared by diluting each of the further cultured strains with SP (sodium phosphate; 10 mM sodium phosphate, 1% TSB) buffer to a final concentration of 2×10^5 CFU/ml.
(§2) Then, each peptide at varying concentrations (0 μg/ml to 300 μg/ml) was dispensed into each well of a 96-well microplate, and 100 μl (1×10^5 CFU/ml) of each of the prepared strain solutions was added thereto, mixed therewith, and allowed to react with the peptide in an incubator at 37° C. for 1 hour.
(§3) In addition, 30 g/L of TS (tryptic soy) and 15 g/L of agar were dissolved in distilled water and sterilized, and then 25 ml of the solution was poured onto a 100 mm round plate and solidified at room temperature for one day or more, thereby preparing a TS agar plate. 10 μl of each reaction solution of the peptide and the strain was plated on the TS agar plate at a constant size, and incubated in an incubator at 37° C. for 18 hours, and then colony formation on the plate was checked. The minimum bactericidal concentration was defined as the minimum concentration of the peptide at which no colony was formed, and the experimental results are shown in Table 1 below.

[2] = system: Pseudomonas aeruginosa (ATCC 27853); experiment: Minimum bactericidal concentration (MBC) assay
Protocol: as §1, §2, §3

[3] = system: Methicillin-resistant Staphylococcus aureus (MRSA, ATCC 33591); experiment: Minimum bactericidal concentration (MBC) assay
Protocol: as §1, with “2×10^5 CFU/ml. […]” for “2×10^5 CFU/ml.”
as §3, with “checked.” for “checked. The minimum bactericidal concentration was defined as the minimum concentration of the peptide at which no colony was formed, and the experimental results are shown in Table 1 below.”
Specifically, each type of bacteria was cultured in 3% (w/v) TSB (tryptic soy broth) liquid medium at 37° C. and 200 rpm for 4 hours, and then further cultured under the same conditions for 3 hours to a concentration of 5×10^6 CFU/ml. Strain solutions were prepared by diluting each of the further cultured strains with SP buffer to a final concentration of 2×10^5 CFU/ml.
as §2, with “Then, the KU-5878” for “Then, each”
In addition, 10 μl of each reaction solution of the peptide and the strain was plated on the TS agar plate at a constant size, and incubated in an incubator at 37° C. for 18 hours, and then colony formation on the plate was checked.

CRPA = experiment: Minimum bactericidal concentration (MBC) assay
[4] = system: Pseudomonas aeruginosa, Staphylococcus aureus, CRPA, MRSA; experiment: Increase in antibacterial activity (MBC) compared with KU-5878
[5] = mark = antibacterial activity increased compared with KU-5878

Compound | MBC Staphylococcus aureus ([1]; Tables 11-21, no unit printed) | MBC Pseudomonas aeruginosa ([2]; Tables 11-21, no unit printed) | MBC MRSA ([3]; Tables 11-21, no unit printed) | MBC CRPA (CRPA; Tables 11-21, no unit printed) | Increase in activity [4, 5] | MBC Staphylococcus aureus ([1]; Staphylococcus aureus) | MBC Pseudomonas aeruginosa ([2]; Pseudomonas aeruginosa) | MBC MRSA ([3]; MRSA) | MBC CRPA (CRPA; CRPA) | Increase in activity ([4]; compared with KU-5878)
-KMMKKGGKFGTFMAIGMGIR [5878-K4-d58K(=d59K)] | 6 µg/mL | 2 µg/mL | 2 µg/mL | 6 µg/mL | ◯ | – | – | – | – | –
-KMMKKGGKFGTF-AIG-GIR [d 58K 71M 75M] | 3 µg/mL | 4 µg/mL | 4 µg/mL | 2 µg/mL | ◯ | – | – | – | – | –
KKMMKKGGKFGTFMAIGMG-R [Peptide 5878-K4-d77I] | 7 µg/mL | 4 µg/mL | 4 µg/mL | 6 µg/mL | ◯ | – | – | – | – | –
KKMM-KGGKF--FM-IG-GIR [d 62K 68G 69T 72A 75M] | 8 µg/mL | 8 µg/mL | 10 µg/mL | 8 µg/mL | ◯ | – | – | – | – | –
KK-MKKGGKFGTF-AIGMGIR [Peptide K4-d60M-d71M] | 10 µg/mL | 10 µg/mL | 12 µg/mL | 10 µg/mL | ◯ | – | – | – | – | –
KK-MKKGGKFGTFMAIGMGIR [5878-K4-d60M(=d61M)] | 3 µg/mL | 2 µg/mL | 2 µg/mL | 4 µg/mL | ◯ | – | – | – | – | –
KKMMKKGGKFGTFM-IGMGIR [Peptide 5878-K4-d72A] | 2 µg/mL | 2 µg/mL | 3 µg/mL | 4 µg/mL | ◯ | – | – | – | – | –
-KMMKKGGKFGTF-AIGMGIR [Peptide K4-d58K-d71M] | 8 µg/mL | 10 µg/mL | 10 µg/mL | 10 µg/mL | ◯ | – | – | – | – | –
KKMMKKGGKFGTF--IG-GIR [d 71M 72A 75M] | 3 µg/mL | 2 µg/mL | 3 µg/mL | 2 µg/mL | ◯ | – | – | – | – | –
d 60M 71M 72A 75M (MKKGGKFGTF) | – | – | – | – | – | 1 µg/mL | 2 µg/mL | 3 µg/mL | 2 µg/mL | ◯
CCCC[C@H](NC(=O)CNC(=O)[C@@H](NC(=O)[C@H](C)NC(=O)[C@H](CCCC)NC(=O)[C@H](Cc1ccccc1)NC(=O)[C@@H](NC(=O)CNC(=O)[C@H](Cc1ccccc1)NC(=O)[C@@H](NC(=O)CNC(=O)CNC(=O)[C@H](CO)NC(=O)[C@H](CCC(N)=O)NC(=O)[C@H](CCCC)NC(=O)[C@H](CCCC)NC(=O)[C@@H](NC(=O)[C@@H](N)CCCCN)[C@@H](C)O)[C@@H](C)O)[C@@H](C)O)[C@@H](C)CC)C(=O)NCC(=O)N[C@H](C(=O)N[C@@H](CCCNC(=N)N)C(=O)O)[C@@H](C)CC [KU-5878-4Nle] (H-KT[Nle][Nle]QSGGTFGTF[Nle]AIG[Nle]GIR-OH; N-terminus and C-terminus assumed) | 90 µg/mL (≈ 41.8 µM) | 110 µg/mL (≈ 51.1 µM) | 100 µg/mL (≈ 46.5 µM) | 100 µg/mL (≈ 46.5 µM) | antibacterial activity of the peptide was improved | – | – | – | – | –
KKMMKSGGTFGTFMAIGMGIR [KU-5878-K2(T59K, Q62K)] | 8 µg/mL | 8 µg/mL | 8 µg/mL | 6 µg/mL | ◯ | – | – | – | – | –
KKMMKK-GKFGTF-AIG-GIR [d 64G 71M 75M] | 3 µg/mL | 2 µg/mL | 3 µg/mL | 3 µg/mL | ◯ | – | – | – | – | –
KKMM-KGGKFGTFMAIGMGIR [5878-K4-d62K(=d63K)] | 6 µg/mL | 2 µg/mL | 6 µg/mL | 6 µg/mL | ◯ | – | – | – | – | –
d 60M 62K 71M 75M (KGGKFGTF) | – | – | – | – | – | 2 µg/mL | 2 µg/mL | 3 µg/mL | 3 µg/mL | ◯
KTMM-SGGTFGTFMAIGMGIR [Peptide 5878-4620] | 90 µg/mL | 100 µg/mL | 100 µg/mL | 100 µg/mL | 0 | – | – | – | – | –
-KMMKK-GKFG-F--IGMGIR [d 58K 64G 69T 71M 72A] | 2 µg/mL | 2 µg/mL | 3 µg/mL | 3 µg/mL | ◯ | – | – | – | – | –
KTMMQSGGTFGT-MAIGMGIR [Peptide 5878-d70F] | 200 µg/mL | 200 µg/mL | 200 µg/mL | 200 µg/mL | – | – | – | – | – | –

Compound | MBC Staphylococcus aureus ([1]; Tables 11-21, no unit printed) | MBC Pseudomonas aeruginosa ([2]; Tables 11-21, no unit printed) | MBC MRSA ([3]; Tables 11-21, no unit printed) | MBC CRPA (CRPA; Tables 11-21, no unit printed) | Increase in activity [4, 5] | MBC Staphylococcus aureus ([1]; Staphylococcus aureus) | MBC Pseudomonas aeruginosa ([2]; Pseudomonas aeruginosa) | MBC MRSA ([3]; MRSA) | MBC CRPA (CRPA; CRPA) | Increase in activity ([4]; compared with KU-5878)
KTMMQSGGRFGTFMAIGMGIR [KU-5878-T66R] | 90 µg/mL | 80 µg/mL | 90 µg/mL | 80 µg/mL | – | – | – | – | – | –
KTMMQSGGAFGTFMAIGMGIR [KU-5878-T66A] | > 300 µg/mL | > 300 µg/mL | > 300 µg/mL | > 300 µg/mL | – | – | – | – | – | –
KTMMQSGGSFGTFMAIGMGIR [KU-5878-T66S] | > 300 µg/mL | > 300 µg/mL | > 300 µg/mL | > 300 µg/mL | – | – | – | – | – | –
KTMMQSGGTFGTFMAWGMGIR [KU-5878-I73W] | 300 µg/mL | 300 µg/mL | > 300 µg/mL | 300 µg/mL | – | – | – | – | – | –
KTMMQSGGTFGTFMAIGMGGR [KU-5878-I77G] | 90 µg/mL | 80 µg/mL | 90 µg/mL | 100 µg/mL | – | – | – | – | – | –
KTMMQS-GTFGTF-AIGM-IR [5878-d64G, d71M, d76G] | 200 µg/mL | 200 µg/mL | 200 µg/mL | 200 µg/mL | – | – | – | – | – | –
KTMMQSGGTFGTFM-IGMGIR [Peptide 5878-d72A] | 150 µg/mL | 150 µg/mL | 160 µg/mL | 170 µg/mL | – | – | – | – | – | –
ATMMQSGGTFGTFMAIGMGIR [KU-5878-K58A] | > 300 µg/mL | > 300 µg/mL | > 300 µg/mL | > 300 µg/mL | – | – | – | – | – | –
KTMMQSGGTFGTFMAAGMGIR [KU-5878-I73A] | > 300 µg/mL | > 300 µg/mL | > 300 µg/mL | > 300 µg/mL | – | – | – | – | – | –
KTMMQSGGTFGTWMAIGMGIR [KU-5878-F70W] | 300 µg/mL | 300 µg/mL | > 300 µg/mL | 300 µg/mL | – | – | – | – | – | –
KTMMQSGGTFGTFMAKGMGIR [KU-5878-I73K] | > 300 µg/mL | > 300 µg/mL | > 300 µg/mL | > 300 µg/mL | – | – | – | – | – | –
KTMMQSGGTFGTFMAIGMGTR [KU-5878-I77T] | > 300 µg/mL | > 300 µg/mL | > 300 µg/mL | > 300 µg/mL | – | – | – | – | – | –
KAMMQSGGTFGTFMAIGMGIR [KU-5878-T59A] | 120 µg/mL | 150 µg/mL | 140 µg/mL | 130 µg/mL | – | – | – | – | – | –
KTMMQSGGTAGTFMAIGMGIR [KU-5878-F67A] | > 300 µg/mL | > 300 µg/mL | > 300 µg/mL | > 300 µg/mL | – | – | – | – | – | –
RTMMQSGGTFGTFMAIGMGIR [KU-5878-K58R] | 120 µg/mL | 120 µg/mL | 120 µg/mL | 120 µg/mL | – | – | – | – | – | –
KKMMKKGGKFGTFMA-GMGIR [Peptide 5878-K4-d73I] | 300 µg/mL | 300 µg/mL | > 300 µg/mL | > 300 µg/mL | – | – | – | – | – | –
KTMMQSGGTFGAFMAIGMGIR [KU-5878-T69A] | 300 µg/mL | 300 µg/mL | 300 µg/mL | 300 µg/mL | – | – | – | – | – | –
